# Assay results published in patent US20100055218A1, “NOVEL COMPOSITIONS” (priority 2006, published 2010).
# How the values were obtained:
# RAW267.7 [1] = assay: Inhibition of PGE2 production in LPS-activated macrophages (EIA); format: cell-based, murine; conditions: Mus musculus, Macrophage; for IC50: read-out: IC50 PGE2
# Experimental: (§1) The anti-inflammatory effects of rosehip and ligustilide, hydroxytyrosol, magnolol, and genistein were evaluated in activated macrophages by determining the inhibition of the synthesis of nitric oxide and/or proinflammatory prostaglandins (PG). PGE2 plays a critical role in the inflammation process, while nitric oxide (NO) is a hallmark of inflammation in various chronic inflammatory diseases including various forms of arthritis, gastro-intestinal diseases and metabolic syndrome.
# (§2) Biologically standardized rosehip powder was obtained from Hyben Vital International, Langeland, Denmark, and dissolved in DMSO. Ligustilide and genistein was synthesized by DSM Nutritional Products. Hydroxytyrosol was from Cayman Chemicals or synthesized by DSM Nutritional Products. Magnolol was obtained from Apin Chemicals Ltd, UK. According to the suppliers' data sheet all products were >90% pure and obtained in powder form. […] The anti-inflammatory effects of compounds was tested in cellular assays using a murine macrophage indicator cell line, RAW267.7, which was purchased from American Type Culture Collection, (ATCC) and cultured in DMEM according to the protocol provided by ATCC. Cells (˜50'000/well) were seeded into flat-bottomed microtiter plates and cultured for one day. Cells were then starved in complete medium containing 0.25% fetal calf serum (FCS) (D-025). After overnight culture, medium was removed and replaced by 100 μL of D-025 containing the test compounds at twice the final concentration. Subsequently, 100 μL of D-025 containing 2 μg/ml lipopolysaccharide (LPS) was added (i.e. final LPS concentration of 1 μg/ml) and the cells were cultured for 24 hours. Substances were usually tested in a concentration range from 0.2 to 50 μM in two-fold dilution steps. In the case of rosehip extract, the concentration range was from 3-2000 μg/ml. Concentrations of nitrite which was generated from nitric oxide released by cells were determined by the Griess reaction (see e.g Imai et al. Biochem Biophys Res Comm, 197, 105 [1993]) using sodium nitrite as standard. Briefly, 50 μl of supernatant was mixed with Griess reagent 1 (25 μL) and Griess reagent 2 (25 μL), centrifuged and the optical density at 540 nm determined. PGE2 secreted into the cell culture medium was determined by EIA obtained from Cayman Chemicals (Ann Harbor, Wis., USA) and used according to the manufacturer's instructions. IC50 values were calculated using a […] least-square fitting equation [y=A+((B−A)/(1+((C−x)̂D))] for best-fit curves (Excel fit software program).
# RAW267.7 [2] = assay: Inhibition of nitric oxide production in LPS-activated macrophages (nitrite, Griess reaction); format: cell-based, murine; conditions: Mus musculus, Macrophage; for IC50: read-out: IC50 Nitric Oxide
# Experimental: as §1, §2
# [3] = single substance, LPS 1 μg/ml, 24 hours
# [4] = 6.25 μmol/L, read-out: % inhibition of NO production
SMILES,IC50 (RAW267.7 [1]; [3]) [µM],"inhibition at 25 µM (RAW267.7 [2]; 25 μmol/L, read-out: % inhibition of NO production) [%]",IC50 (RAW267.7 [2]; [3]) [µM],inhibition at 6.25 µM (RAW267.7 [2]; [4]) [%],IC50 (RAW267.7 [1]; 24 h) [µM],inhibition at 6.25 µM (RAW267.7 [1]; read-out: % inhibition of PGE2 production) [%],IC50 (RAW267.7 [2]; 24 h) [µM],inhibition at 6.25 µM (RAW267.7 [2]; read-out: % inhibition of NO production) [%],"inhibition at 12.5 µM (RAW267.7 [2]; 12.5 μmol/L, read-out: % inhibition of NO production) [%]"
"O=c1c(-c2ccc(O)cc2)coc2cc(O)cc(O)c12 [Genistein, 4′,5,7-trihydroxyisoflavone]",5 ± 1,24,37 ± 2,–,–,–,–,–,–
"CCC/C=C1\OC(=O)C2=C1CCC=C2 [Ligustilide, ligustilide]",10 ± 2,–,15 ± 1,5,–,–,–,–,–
"C=CCc1ccc(O)c(-c2cc(CC=C)ccc2O)c1 [Magnolol, 5,5′-Diallyl-2,2′-biphenyldiol]",–,–,–,–,2 ± 1,57,10 ± 2,2,–
"OCCc1ccc(O)c(O)c1 [OH-Tyrosol, 3,4 dihydroxyphenylethanol]",24 ± 3,–,28 ± 2,-5,–,–,–,–,9
